Measurements: patent US4031093A, “1,6-Dihydro-6-oxo-2-(ortho-substituted phenyl)pyrimidine-5-carboxylic acid derivatives” (priority 1976, dated 1977)
Where two headings read alike, the source gives them in different places.

Key:
[1] = tested on: reagin-mediated rat Passive Cutaneous Anaphylaxis (PCA); test: reagin-mediated rat Passive Cutaneous Anaphylaxis (PCA) screening test; type: in vivo, rat (Sprague-Dawley)
Description: The reagin-mediated rat Passive Cutaneous Anaphylaxis (PCA) screening test used to evaluate the present compounds is generally regarded as one of the best animal models for use in predicting the antiallergy activity of test compounds in man. Briefly, the method consists of passive sensitization of skin sites on the test animals with reaginic antibodies followed after 24 hours by administration of the test drug and antigen challenge. The allergic response is measured by use of Evans' blue dye and is evaluated by the spot diameter at the injection site. Details of the test are provided below.
A substituted ovalbumin antigen is used both as immunogen and challenging antigen. The antigen is prepared as follows: 500 mg. ovalbumin (EA) and 500 mg. K2 CO3 are dissolved in 25 ml. distilled H2 O and stirred at room temperature for 5 minutes. Five hundred (500) mg. dinitrobenzene sulfonic acid, Na^+ salt, (previously recrystallized from hot absolute ethanol) is then added slowly with continued stirring. The reaction mixture is then immediately placed in the dark and allowed to proceed for 2 hours with constant stirring. After 2 hours the mixture is placed in suitable dialysis tubing and dialyzed against 5 changes (4 liters each) of distilled H2 O at 5° C. After dialysis the product is lyophilized and stored at room temperature in a brown or amber container. The antigen obtained will appear as a light yellow, amorphous solid which is very soluble in water or saline. It is designated as DNP denatured ovalbumin (DNP-d EA).
Adult, male Sprague-Dawley rats are used as a source of reagin-rich antisera for the PCA model. Immunization is by a combination of DNP-d EA on Al (OH)3 gel and B. pertussis vaccine. Preparation of the DNP-d EA - gel immunogen is as follows: Dissolve the DNP-d EA in TBS so as to give a concentration of 10 mg./ml. Slowly add 1 ml. of this solution to 10 ml. Al(OH)3 gel (10 mg. solids/ml.) with constant stirring at room temperature. Stir the mixture an additional 30 minutes to insure a uniform adsorption of antigen on gel.
The resulting preparation is then used in combination with phase I B. pertussis vaccine to immunize male S/D rats as follows: For each rat administer 0.1 ml. DNP-d EA - gel suspension intramuscularly in each hind leg (200 μg DNP-d EA and 2 mg. gel total dose). Follow these injections by the intraperitoneal administration of 1.0 ml. B. pertussis vaccine (10-20 × 10^9 organisms). The use of light ether anesthesia during this procedure is recommended to insure proper intramuscular and intraperitoneal injections. Nine days following immunization (but no longer than 10) the animals are exsanguinated by cardiac puncture or abdominal aorta cannulation under ether or pentobarbital anesthesia. The collected whole blood is allowed to clot, the serum separated by centrifugation and the individual serum samples stored frozen until assayed for IgE content.
Individual serum samples should be screened for reaginic antibody concentration before being pooled with other sera, as not all rats respond to immunization procedures with reagin production. A 1:50 saline dilution of serum from each immunized rat is used for this purpose. Intradermal injections of 0.05 ml. of the diluted sera are made in the shaven backs of two small female recipient rats, 100-120 gms. Several serum samples can be tested simultaneously in recipient animals. After a 24 to 48 hour latent period antigen challenge is accomplished by […] administration to each rat of 1 mg. DNP-d EA in 0.5 ml. 0.5% Evans' blue dye in saline. Sera which show positive PCA reactions at the 1:50 dilution, as measured 20 to 30 minutes post-challenge are pooled, dispensed in small aliquots and stored at -70° C. or lower until used. Negative sera may be discarded.
The IgE titer of the antisera pool should then be determined. […]

[2] = tested on: release of mediators, e.g. histamine and SRS-A; conditions: administered to asthmatic patients prior to inhalation of specific antigens; cited from earlier work
[3] = cited from earlier work
[4] = bronchial asthma treatment; cited from earlier work
[5] = po, Table I, p.o., 10 minutes prior to antigen challenge, esters suspended in Tween/CMC, read-out: ID50 (dose of compound that inhibits 50% of the response), ethyl esters, p.o.
[6] = po, Table II, p.o., 10 minutes prior to antigen challenge, acids solubilized in aqueous sodium bicarbonate, read-out: ID50 (dose of compound that inhibits 50% of the response), 5-carboxylic acids, p.o.
[7] = iv, Table II, i.v., 1-5 minutes prior to antigen challenge, acids solubilized in aqueous sodium bicarbonate, read-out: ID50 (dose of compound that inhibits 50% of the response), 5-carboxylic acids, i.v.

Row | SMILES | ED50 [1, 5] [mg/kg] | ED50 [1, 6] [mg/kg] | also measured
1 | CCOC(=O)c1cnc(-c2ccccc2OC(C)CC)[nH]c1=O (racemic) [Example 10, Ethyl (±)-1,6-dihydro-6-oxo-2-(2-sec-butoxyphenyl)pyrimidine-5-carboxylate] | 0.5 |  | 
2 | CCC(C)Oc1ccccc1-c1ncc(C(=O)O)c(=O)[nH]1 (racemic) [Example 24B, (±)-1,6-Dihydro-6-oxo-2-(2-sec-butoxyphenyl)pyrimidine-5-carboxylic acid] |  | 0.5 | 
3 | O=C(O)c1cc(=O)c2c(OCC(O)COc3cccc4oc(C(=O)O)cc(=O)c34)cccc2o1 [DSCG, Disodium cromoglycate, reference compound] | > 30 | > 30 | inhibition of release of mediators [2]: inhibits the release of mediators, e.g. histamine and SRS-A; ED50 ([1]; iv, Table I, i.v., compound dosed at time of challenge, solubilized in saline, read-out: ID50, DSCG, i.v. (Table I)): 0.3 mg/kg; oral absorption [3]: not orally absorbed
4 | CCOC(=O)c1cnc(-c2ccccc2OCC)[nH]c1=O [Example 1, Ethyl 1,6-dihydro-6-oxo-2-(2-ethoxyphenyl)pyrimidine-5-carboxylate] | ~2 |  | ED50 ([1]; iv, Table I, i.v., 1-5 minutes prior to antigen challenge, esters suspended in Tween/CMC, read-out: ID50 (dose of compound that inhibits 50% of the response), ethyl esters, i.v.): 0.4 mg/kg
5 | CCCOc1ccccc1-c1ncc(C(=O)OCC)c(=O)[nH]1 [Example 5, Ethyl 1,6-dihydro-6-oxo-2-(2-n-propoxyphenyl)pyrimidine-5-carboxylate] | ~5 |  | 
6 | CCOC(=O)c1cnc(-c2ccccc2OC(C)C)[nH]c1=O [Example 7, Ethyl 1,6-dihydro-6-oxo-2-(2-isopropoxyphenyl)pyrimidine-5-carboxylate] | ~2 |  | 
7 | C=CCOc1ccccc1-c1ncc(C(=O)OCC)c(=O)[nH]1 [Example 8, Ethyl 1,6-dihydro-6-oxo-2-(2-allyloxyphenyl)pyrimidine-5-carboxylate] | 0.5 |  | 
8 | CCCCOc1ccccc1-c1ncc(C(=O)OCC)c(=O)[nH]1 [Example 9, Ethyl 1,6-dihydro-6-oxo-2-(2-n-butoxyphenyl)pyrimidine-5-carboxylate] | 0.5 |  | 
9 | CCOC(=O)c1cnc(-c2ccccc2OCC(C)C)[nH]c1=O [Example 12, Ethyl 1,6-dihydro-6-oxo-2-(2-isobutoxyphenyl)pyrimidine-5-carboxylate] | ~3 |  | 
10 | CCOC(=O)c1cnc(-c2cc(OC)ccc2OC)[nH]c1=O [Example 15A, Ethyl 1,6-dihydro-6-oxo-2-(2,5-dimethoxyphenyl)pyrimidine-5-carboxylate] | 5 |  | 
11 | CCOC(=O)c1cnc(-c2cc(Cl)ccc2OCC)[nH]c1=O [Example 15B, Ethyl 1,6-dihydro-6-oxo-2-(5-chloro-2-ethoxyphenyl)pyrimidine-5-carboxylate] | ~0.5 |  | 
12 | CCOC(=O)c1cnc(-c2cc(OC)ccc2OCC)[nH]c1=O [Example 15C, Ethyl 1,6-dihydro-6-oxo-2-(2-ethoxy-5-methoxyphenyl)pyrimidine-5-carboxylate] | 0.3 |  | 
13 | CCOC(=O)c1ccc(OCC)c(-c2ncc(C(=O)OCC)c(=O)[nH]2)c1 [Example 16, Ethyl 1,6-dihydro-6-oxo-2-(5-carbethoxy-2-ethoxyphenyl)pyrimidine-5-carboxylate] | 1 |  | 
14 | CCOC(=O)c1cnc(-c2cc(N)ccc2OCC)[nH]c1=O [Example 17, Ethyl 1,6-dihydro-6-oxo-2-(5-amino-2-ethoxyphenyl)pyrimidine-5-carboxylate] | 0.5 |  | 
15 | CCOC(=O)c1cnc(-c2ccccc2OCC2CC2)[nH]c1=O [Example 18, Ethyl 1,6-dihydro-6-oxo-2-(2-cyclopropylmethoxyphenyl)pyrimidine-5-carboxylate] | ~0.3 |  | 
16 | CCCOc1ccc(OC)cc1-c1ncc(C(=O)OCC)c(=O)[nH]1 [Example 19, Ethyl 1,6-dihydro-6-oxo-2-(5-methoxy-2-n-propoxyphenyl)-pyrimidine-5-carboxylate] | 0.7 |  | 

Row | SMILES | ED50 [1, 5] [mg/kg] | ED50 [1, 6] [mg/kg] | also measured
17 | CCOc1ccccc1-c1ncc(C(=O)O)c(=O)[nH]1 [Example 20, 1,6-Dihydro-6-oxo-2-(2-ethoxyphenyl)pyrimidine-5-carboxylic acid] |  | 0.5 | ED50 [1, 7]: 0.07 mg/kg
18 | CCCOc1ccccc1-c1ncc(C(=O)O)c(=O)[nH]1 [Example 21, 1,6-Dihydro-6-oxo-2-(2-n-propoxyphenyl)pyrimidine-5-carboxylic acid] |  | 0.9 | ED50 [1, 7]: ~0.1 mg/kg
19 | CC(C)Oc1ccccc1-c1ncc(C(=O)O)c(=O)[nH]1 [Example 22, 1,6-Dihydro-6-oxo-2-(2-isopropoxyphenyl)pyrimidine-5-carboxylic acid] |  | 0.8 | 
20 | CCCCOc1ccccc1-c1ncc(C(=O)O)c(=O)[nH]1 [Example 23, 1,6-Dihydro-6-oxo-2-(2-n-butoxyphenyl)pyrimidine-5-carboxylic acid] |  | 0.5 | 
21 | C=CCOc1ccccc1-c1ncc(C(=O)O)c(=O)[nH]1 [Example 24A, 1,6-Dihydro-6-oxo-2-(2-allyloxyphenyl)pyrimidine-5-carboxylic acid] |  | 0.5 | 
22 | CC(C)COc1ccccc1-c1ncc(C(=O)O)c(=O)[nH]1 [Example 24C, 1,6-Dihydro-6-oxo-2-(2-isobutoxyphenyl)pyrimidine-5-carboxylic acid] |  | 0.5 | 
23 | COc1ccc(OC)c(-c2ncc(C(=O)O)c(=O)[nH]2)c1 [Example 24D, 1,6-Dihydro-6-oxo-2-(2,5-dimethoxyphenyl)pyrimidine-5-carboxylic acid] |  | 1 | 
24 | CCOc1ccc(Cl)cc1-c1ncc(C(=O)O)c(=O)[nH]1 [Example 24E, 1,6-Dihydro-6-oxo-2-(5-chloro-2-ethoxyphenyl)pyrimidine-5-carboxylic acid] |  | 0.5 | 
25 | CCOc1ccc(N)cc1-c1ncc(C(=O)O)c(=O)[nH]1 [Example 24F, 1,6-Dihydro-6-oxo-2-(5-amino-2-ethoxyphenyl)pyrimidine-5-carboxylic acid] |  | 0.9 | 
26 | CCOc1ccc(OC)cc1-c1ncc(C(=O)O)c(=O)[nH]1 [Example 24G, 1,6-Dihydro-6-oxo-2-(2-ethoxy-5-methoxyphenyl)pyrimidine-5-carboxylic acid] |  | 0.2 | 
27 | O=C(O)c1cnc(-c2ccccc2OCC2CC2)[nH]c1=O [Example 25, 1,6-Dihydro-6-oxo-2-(2-cyclopropylmethoxyphenyl)pyrimidine-5-carboxylic acid] |  | ~0.1 | 
28 | CCOc1ccc(N(C)C)cc1-c1ncc(C(=O)O)c(=O)[nH]1 [Example 26, 1,6-Dihydro-6-oxo-2-(5-dimethylamino-2-ethoxyphenyl)pyrimidine-5-carboxylicacid] |  | 0.3 | 
29 | CCCOc1ccc(OC)cc1-c1ncc(C(=O)O)c(=O)[nH]1 [Example 27, 1,6-Dihydro-6-oxo-2-(5-methoxy-2-n-propoxyphenyl)pyrimidine-5-carboxylic acid] |  | 0.3 | 
30 | CN1[C@@H]2CC[C@H]1C[C@@H](OC(=O)C(CO)c1ccccc1)C2 (stereo partly drawn) [atropine] |  |  | side effects [4]: undesirable side effects, e.g. cardiac stimulation and gastrointestinal distress
31 | CNC[C@H](O)c1ccc(O)c(O)c1 [epinephrine] |  |  | side effects [4]: undesirable side effects, e.g. cardiac stimulation and gastrointestinal distress
32 | CC(C)NCC(O)c1ccc(O)c(O)c1 (stereo not drawn) [isoproterenol] |  |  | side effects [4]: undesirable side effects, e.g. cardiac stimulation and gastrointestinal distress
